Assay [1] has as its system rapamycin specific antibody. The assay can be described thus: BIAcore binding of antibody to matrix-immobilized compound. Particulars: 803 resonance units (RU) of the compound immobilized on a solid matrix, EDC and NHS. The protocol: The following example illustrates that 803 resonance units (RU) of the compound of Example 11 can be immobilized on a solid matrix using the BIAcore's standard protocol based on EDC and NHS used in a BIAcore. […] The kinetics of association and dissociation were determined for each concentration of antibody tested (0.625, 1.25, 2.5, 5.0, 10.0 ug/ml). […] This matrix can also be used for the isolation of novel binding proteins, as practiced by one skilled in the art. […] In one approach, tissue or cell lysates containing the appropriate protease inhibitors are incubated with FKBP which has been incubated with a deprotected-rapamycin 42-ester with N-[9fluoren-9-ylmethoxy)carbonyl]glycine conjugated matrix for a sufficient time to allow binding. Various buffers are used to rinse the proteins which are nonspecifically bound.
On the technique in general: In SPR one partner is held on a chip, and binding of the other changes the refractive index at the surface.

A further assay relates to RAP-42-OVAF2#1 MoAb. The settings on record: for fluorescence polarization on addition of RAP-42-OVAF2#1 MoAb: 5 ug/mL MoAb. The text has this:
The hybridoma cell line in P4G1 was cloned by limiting dilution and is designated as hybridoma cell line, RAP-42-OVAF2#1hc.
Background: Polarisation of emitted light reports the rotation of a fluorescent probe.

Assay [2] concerns the target T1, FKBP12 (Homo sapiens, UniProt P62942). Description: Fluorescence polarization, tracer binding to FKBP12. Particulars: for fluorescence polarization on addition of FKBP12: 0.ug FKBP12 to 1.00 mL 10 nM tracer; for fluorescence polarization before addition of FKBP12: 1.00 mL 10 nM tracer.
The target of assay [3] is T1, FKBP12. The assay can be described thus: Fluorescence polarization competition, rapamycin-fluorescein and FKBP12. Type of assay: binding.
The next assay concerns Anti-rapamycin Antibody. Description: Capture ELISA of anti-rapamycin antibody levels in rabbit sera. Type of assay: binding. The settings on record: sera diluted 1:5, conjugate 0.5 ng/ml. In general terms: In an ELISA, binding on a coated surface is turned into a signal by an enzyme label.
The subject of a further assay is mice. The settings on record: 50 μg intrasplenically in Complete Freund's Adjuvant, boost 50 μg into footpads. The method, then: Microtiter plates (IMMUNOLON I) were coated overnight with 100 μl of goat anti-mouse antibody (10 μg/ml in 10 mM potassium phosphate buffer, pH 7.2) at 4° C. The plates were flicked and blocked with 100 μl of 1% bovine sera albumin in phosphate buffered saline overnight at 4° C. After flicking and washing the plates thrice with 10 mM phosphate buffer, pH 7.05, 30 mM NaCl, 0.02% TRITON X-100 (polyethylene glycol tert-octylphenyl ether) and 0.004% thimerosal wash buffer, 100 μl of each mouse sera diluted with phosphate buffer solution was added to a well and incubated at room temperature for overnight.

Setting [4] is: tracer 10 nM in 100 mM sodium phosphate pH 7.5.

T1 sequence (P62942 whole entry, species assumed): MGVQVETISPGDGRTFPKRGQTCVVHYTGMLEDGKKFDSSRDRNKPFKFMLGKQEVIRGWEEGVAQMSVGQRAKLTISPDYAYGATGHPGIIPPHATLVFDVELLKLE

For `COC1CC2CCC(C)C(O)(O2)C(=O)C(=O)N2CCCCC2C(=O)OC(C(C)CC2CCC(OC(=O)CNC(=O)OCC3c4ccccc4-c4ccccc43)C(OC)C2)CC(=O)C(C)C=C(C)C(O)C(OC)C(=O)C(C)CC(C)C=CC=CC=C1C` (stereo not shown) [Example 11], in assay [1], the “rapamycin specific antibody bound by the matrix” value is given as 1401 RU.
In the case of `CO[C@H]1C[C@@H]2CC[C@@H](C)[C@@](O)(O2)C(=O)C(=O)N2CCCC[C@H]2C(=O)O[C@H]([C@H](C)C[C@@H]2CC[C@@H](OC(=O)CCC(=O)NCC(=O)Nc3ccc4c(c3)C(=O)OC43c4ccc(O)cc4Oc4cc(O)ccc43)[C@H](OC)C2)CC(=O)[C@H](C)/C=C(\C)[C@@H](O)[C@@H](OC)C(=O)[C@H](C)C[C@H](C)/C=C/C=C/C=C/1C` [Example 23a, Rapamycin-42-ester with Succinic Acid Conjugate with 5-Glycinlfluoresceinamine], in the assay with RAP-42-OVAF2#1 MoAb, the “fluorescence polarization on addition of RAP-42-OVAF2#1 MoAb” value stood at 58 mP. For the same molecule, the “polarization after addition of excess of RAP-42-OVAF2#1 MoAb” value in the assay on RAP-42-OVAF2#1 MoAb (setting [4]) is 84 mP. On FKBP12 [2], the “fluorescence polarization on addition of FKBP12” value is recorded as 148 mP and the “fluorescence polarization before addition of FKBP12” value stood at 57 mP. Further, the “polarization after addition of an excess of FKBP12” value at FKBP12 [2] (setting [4]) was found to be 195 mP. Further, the “polarization of tracer alone” value at FKBP12 [2] (tracer 10 nM in 100 mM sodium phosphate pH 7.5, no binder) came to 77 mP.
For `CO[C@@H](C[C@@H]1CC[C@@H](C)[C@](O)(C(=O)C(=O)N2CCCC[C@H]2C(=O)[O-])O1)/C(C)=C/C=C/C=C/[C@@H](C)C[C@@H](C)C(=O)[C@H](OC)[C@H](O)/C(C)=C/[C@@H](C)C(=O)/C=C/[C@H](C)C[C@@H]1CC[C@@H](O)[C@H](OC)C1.[Na+]` [secorapamycin], the “fluorescence polarization in the presence of analyte” value at FKBP12 [3] (100 nM analyte, 128 mP in the absence of analyte, 500 uL 0.02 ug/mL FKBP12 + 500 μL 20 nM rapamycin-fluorescein) is reported as 122 mP; with RAP-42-OVAF2#1 (100 nM analyte, 124 mP in the absence of analyte, 500 μL 10 μg/mL MoAb + 500 μL 20 nM secorapamycin-fluorescein), 74 mP. The “effect on binding of rapamycin-fluorescein to FKBP12 (in words)” value on FKBP12 [3] (analyte 0 to 100 nM) is “no effect”. In the assay on RAP-42-OVAF2#1 (analyte 0 to 100 nM), the “effect on binding of secorapamycin fluorescein derivative to RAP-42-OVAF2#1 (in words)” value was “inhibits binding”.
As to “Rapamycin 31.42-Diester with Glutaric Acid Conjugate with Horseradish Peroxidase [Example 10]”, the “Prebleed (A450)” value came out at 0.119 in the assay on Anti-rapamycin Antibody (Rabbit No. 81) and 0.136 in the assay on Anti-rapamycin Antibody (Rabbit No. 89). Besides, the “ΔA450 (3rd Bleed-Prebleed)” value in the assay with Anti-rapamycin Antibody (Rabbit No. 81) is 0.713; in the assay on Anti-rapamycin Antibody (Rabbit No. 89), 0.037.
As for “Rapamycin 31.42-Diester with Glutaric Acid Conjugate with Keyhole Limpet Hemocyanin [Example 8]”, the “mice with antibodies reactive for compound of Example 10” value in the assay on mice was “five of the five”.
On to “Rapamycin 42-Ester with 3-[3-(4-iminobutylthio)succinimidyl]phenacyl-glycine Conjugate with Horseradish Peroxidase [Example 12]”, for which the “ΔA450 (3rd Bleed-Prebleed)” value with Anti-rapamycin Antibody (Rabbit No. 81) is on record as 0.217; in the assay with Anti-rapamycin Antibody (Rabbit No. 89) it was 0.026.
Regarding “Secorapamycin 42-ester with Succinic Acid Conjugate with 5-Glycinylfluoresceinamine [Example 24]”, in the assay with RAP-42-OVAF2#1 MoAb, the “binding by RAP-42-OVAF2#1 MoAb (in words)” value is “binds specifically”, the “fluorescence polarization before addition of RAP-42-OVAF2#1 MoAb” value is 44 mP and the “fluorescence polarization on addition of RAP-42-OVAF2#1 MoAb” value was determined as 136 mP. Also, on FKBP12 [2], the “fluorescence polarization on addition of FKBP12” value was found to be 58 mP and the “fluorescence polarization before addition of FKBP12” value was found to be 49 mP.

B1: Rapamycin 42 Ester with (N-(3-carboxyphenyl)-3-thiosuccinimidyl)-glycine Conjugate with Horseradish Peroxidase (conjugate, UniProt P00433 31-338, looked up)
Peroxidase C1A: QLTPTFYDNSCPNVSNIVRDTIVNELRSDPRIAASILRLHFHDCFVNGCDASILLDNTTSFRTEKDAFGNANSARGFPVIDRMKAAVESACPRTVSCADLLTIAAQQSVTLAGGPSWRVPLGRRDSLQAFLDLANANLPAPFFTLPQLKDSFRNVGLNRSSDLVALSGGHTFGKNQCRFIMDRLYNFSNTGLPDPTLNTTYLQTLRGLCPLNGNLSALVDFDLRTPTIFDNKYYVNLEEQKGLIQSDQELFSSPNATDTIPLVRSFANSTQTFFNAFVEAMDRMGNITPLTGTQGQIRLNCRVVNSNS
modifications: rapamycin 42-ester hapten conjugate
As to B1, the “ΔA450 (3rd Bleed-Prebleed)” value in the assay with Anti-rapamycin Antibody (Rabbit No. 81) is 0.114; in the assay with Anti-rapamycin Antibody (Rabbit No. 89), 0.020.

For the origin of these results see patent US6541612B2 (Wyeth, priority 1993, dated 2003).
